Measured values taken from ChEMBL document CHEMBL1909046, “DrugMatrix in vitro pharmacology data”.
pIC50, pKi: −log10 of the molar value.

What was measured:
[1] = molecular target: T1, Alpha-1A adrenergic receptor (Rattus norvegicus, UniProt P43140); assay: DRUGMATRIX: Alpha-1A adrenergic receptor radioligand binding (ligand: prazosin); format: cell membranes, Wistar, Submaxillary gland, Membrane; settings: Not Active = under 50% inhibition at 10 µM; for pIC50: read-out: IC50; for pKi: read-out: Ki
T1 sequence (P43140 whole entry): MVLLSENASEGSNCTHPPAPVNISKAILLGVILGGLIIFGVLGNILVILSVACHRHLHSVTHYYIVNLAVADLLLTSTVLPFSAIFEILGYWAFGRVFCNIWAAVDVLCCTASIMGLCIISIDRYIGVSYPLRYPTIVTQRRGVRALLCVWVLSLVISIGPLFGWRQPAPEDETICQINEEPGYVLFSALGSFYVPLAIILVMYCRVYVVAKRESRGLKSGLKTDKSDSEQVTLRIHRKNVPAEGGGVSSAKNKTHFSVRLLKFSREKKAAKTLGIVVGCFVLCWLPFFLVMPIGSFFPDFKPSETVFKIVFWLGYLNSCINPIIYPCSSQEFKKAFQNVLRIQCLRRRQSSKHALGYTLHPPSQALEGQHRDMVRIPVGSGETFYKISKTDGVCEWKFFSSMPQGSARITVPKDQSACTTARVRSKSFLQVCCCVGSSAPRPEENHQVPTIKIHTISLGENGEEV

[2] = DRUGMATRIX: ATPase, Na+/K+ enzyme inhibition (substrate: ATP); format: tissue-based, Sus scrofa, Heart; settings: Not Active = under 50% inhibition at 10 µM
Calcitonin receptor = molecular target: T2, Calcitonin receptor (Homo sapiens, UniProt P30988); format: cell membranes, Membrane; settings: t47d; note: in other assays of this panel Not Active means under 50% inhibition at 10 µM
T2 sequence (P30988 whole entry): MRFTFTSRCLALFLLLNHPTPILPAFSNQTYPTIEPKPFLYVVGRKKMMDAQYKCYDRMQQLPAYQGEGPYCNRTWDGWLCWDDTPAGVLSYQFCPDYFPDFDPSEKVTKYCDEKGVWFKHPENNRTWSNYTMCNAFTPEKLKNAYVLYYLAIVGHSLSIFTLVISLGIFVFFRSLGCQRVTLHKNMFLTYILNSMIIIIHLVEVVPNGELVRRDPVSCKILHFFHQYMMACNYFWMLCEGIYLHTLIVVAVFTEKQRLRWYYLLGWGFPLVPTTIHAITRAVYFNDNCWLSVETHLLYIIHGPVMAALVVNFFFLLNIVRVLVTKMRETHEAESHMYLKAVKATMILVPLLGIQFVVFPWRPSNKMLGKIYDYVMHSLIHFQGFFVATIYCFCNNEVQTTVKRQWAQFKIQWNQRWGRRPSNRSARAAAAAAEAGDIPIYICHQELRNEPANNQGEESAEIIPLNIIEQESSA

[3] = molecular target: T3, 5-hydroxytryptamine receptor 2C (Homo sapiens, UniProt P28335); assay: DRUGMATRIX: Serotonin (5-Hydroxytryptamine) 5-HT2C radioligand binding (ligand: [3H] Mesulergine); format: cell membranes, CHO-K1, Membrane; settings: Not Active = under 50% inhibition at 10 µM; for IC50: cho-k1
T3 sequence (P28335 whole entry): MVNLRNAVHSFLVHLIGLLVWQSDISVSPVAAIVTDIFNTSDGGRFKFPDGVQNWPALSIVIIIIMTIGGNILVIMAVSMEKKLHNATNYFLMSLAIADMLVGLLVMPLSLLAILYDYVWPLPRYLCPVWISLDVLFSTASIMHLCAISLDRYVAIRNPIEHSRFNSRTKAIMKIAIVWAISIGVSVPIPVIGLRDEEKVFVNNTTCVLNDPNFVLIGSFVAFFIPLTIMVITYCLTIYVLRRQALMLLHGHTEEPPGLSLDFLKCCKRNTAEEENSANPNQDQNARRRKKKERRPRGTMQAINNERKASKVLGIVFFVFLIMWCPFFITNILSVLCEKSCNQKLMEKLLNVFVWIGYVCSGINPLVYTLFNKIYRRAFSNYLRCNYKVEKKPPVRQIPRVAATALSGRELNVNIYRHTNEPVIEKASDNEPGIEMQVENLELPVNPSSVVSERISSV

[4] = molecular target: Prostaglandin G/H synthase 1 (Homo sapiens, UniProt P23219); assay: biochemical; format: tissue-based, Platelet; settings: platelet;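 note: inhibition of COX-1 enzyme activity, with arachidonic acid supplied as substrate; in other assays of this panel Not Active means under 50% inhibition at 10 µM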
Endothelin-1 receptor = molecular target: T4, Endothelin-1 receptor (Homo sapiens, UniProt P25101); format: cell membranes, Membrane; settings: cho-k1; note: in other assays of this panel Not Active means under 50% inhibition at 10 µM
T4 sequence (P25101 whole entry): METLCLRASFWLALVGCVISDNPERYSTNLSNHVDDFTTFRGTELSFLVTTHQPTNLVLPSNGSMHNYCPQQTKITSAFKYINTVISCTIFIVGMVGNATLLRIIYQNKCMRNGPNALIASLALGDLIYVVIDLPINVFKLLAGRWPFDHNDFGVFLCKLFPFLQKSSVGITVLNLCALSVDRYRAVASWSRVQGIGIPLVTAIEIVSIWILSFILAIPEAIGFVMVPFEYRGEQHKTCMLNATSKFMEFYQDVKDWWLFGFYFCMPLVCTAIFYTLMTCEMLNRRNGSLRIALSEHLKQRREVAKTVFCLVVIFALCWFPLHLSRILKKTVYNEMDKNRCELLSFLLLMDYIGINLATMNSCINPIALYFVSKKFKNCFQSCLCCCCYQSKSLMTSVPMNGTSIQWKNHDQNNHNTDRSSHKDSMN

[5] = DRUGMATRIX: Glutamate, AMPA radioligand binding (ligand: [3H] AMPA); format: cell membranes, Rattus norvegicus, Wistar, Cerebral cortex, Membrane; settings: Not Active = under 50% inhibition at 10 µM
[6] = DRUGMATRIX: Interleukin IL-1 radioligand binding (ligand: [125I] interleukin 1beta); format: cell membranes, Membrane; settings: nih3t3; Not Active = under 50% inhibition at 10 µM
[7] = molecular target: T5, Amine oxidase [flavin-containing] A (Homo sapiens, UniProt P21397); assay: DRUGMATRIX: Monoamine Oxidase MAO-A enzyme inhibition (substrate: Kynuramine); set-up: species or system BTI-TN-5B1-4; settings: bti-tn-5b1-4; Not Active = under 50% inhibition at 10 µM
T5 sequence (P21397 whole entry): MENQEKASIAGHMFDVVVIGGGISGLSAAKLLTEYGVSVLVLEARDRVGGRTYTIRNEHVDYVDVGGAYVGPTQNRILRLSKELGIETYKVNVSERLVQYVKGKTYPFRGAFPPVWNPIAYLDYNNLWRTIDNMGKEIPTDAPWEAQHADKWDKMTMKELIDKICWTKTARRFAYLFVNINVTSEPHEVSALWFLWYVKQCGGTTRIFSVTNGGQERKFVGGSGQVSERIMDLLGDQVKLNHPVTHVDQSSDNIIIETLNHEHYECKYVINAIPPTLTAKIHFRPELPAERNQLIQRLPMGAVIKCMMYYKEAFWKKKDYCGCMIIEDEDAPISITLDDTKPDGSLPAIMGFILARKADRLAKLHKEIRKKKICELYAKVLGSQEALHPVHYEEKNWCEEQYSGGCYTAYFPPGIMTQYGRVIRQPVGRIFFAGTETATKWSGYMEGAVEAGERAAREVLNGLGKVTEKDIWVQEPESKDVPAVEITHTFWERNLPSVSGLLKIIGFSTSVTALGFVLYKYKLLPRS

[8] = molecular target: Mitogen-activated protein kinase 14 (Homo sapiens, UniProt Q16539); set-up: species or system Escherichia coli;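 note: inhibition of p38alpha enzyme activity in a biochemical kinase assay, with myelin basic protein serving as substrate; in other assays of this panel Not Active means under 50% inhibition at 10 µM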
Chain of Mitogen-activated protein kinase 14 (Q16539 whole entry): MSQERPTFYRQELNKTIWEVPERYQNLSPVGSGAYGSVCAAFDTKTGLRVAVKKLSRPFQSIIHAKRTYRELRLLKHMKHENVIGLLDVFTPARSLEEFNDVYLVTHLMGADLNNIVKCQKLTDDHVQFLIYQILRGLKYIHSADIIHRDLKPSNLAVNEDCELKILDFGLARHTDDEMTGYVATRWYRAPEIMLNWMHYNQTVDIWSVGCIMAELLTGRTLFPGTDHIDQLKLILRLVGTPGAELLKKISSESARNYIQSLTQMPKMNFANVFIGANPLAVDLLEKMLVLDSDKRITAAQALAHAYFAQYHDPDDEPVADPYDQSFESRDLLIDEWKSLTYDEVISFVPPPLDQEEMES

Chain of Prostaglandin G/H synthase 1 (P23219 whole entry): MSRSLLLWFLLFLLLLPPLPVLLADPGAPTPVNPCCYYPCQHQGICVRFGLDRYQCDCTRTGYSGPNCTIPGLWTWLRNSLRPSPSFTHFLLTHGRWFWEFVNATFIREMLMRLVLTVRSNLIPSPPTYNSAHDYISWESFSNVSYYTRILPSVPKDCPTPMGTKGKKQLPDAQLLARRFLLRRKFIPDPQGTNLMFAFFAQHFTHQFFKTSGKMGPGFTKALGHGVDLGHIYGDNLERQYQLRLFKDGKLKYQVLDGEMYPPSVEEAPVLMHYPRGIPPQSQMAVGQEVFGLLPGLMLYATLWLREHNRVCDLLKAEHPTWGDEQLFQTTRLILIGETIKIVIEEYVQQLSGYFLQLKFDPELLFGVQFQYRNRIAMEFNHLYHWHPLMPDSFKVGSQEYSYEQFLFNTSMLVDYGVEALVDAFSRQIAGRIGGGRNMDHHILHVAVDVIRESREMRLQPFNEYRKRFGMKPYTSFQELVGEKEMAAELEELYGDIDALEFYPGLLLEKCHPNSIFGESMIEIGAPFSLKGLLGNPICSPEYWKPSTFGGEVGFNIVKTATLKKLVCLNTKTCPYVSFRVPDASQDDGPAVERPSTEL

Row | SMILES | IC50 [1] | IC50 [2] | Ki [2] | IC50 (Calcitonin receptor) | IC50 [3] | IC50 [4] | IC50 (Endothelin-1 receptor) | IC50 [5] | Ki [5] | IC50 [6] | Ki [6] | IC50 [7] | IC50 [8] | pIC50 [1] | pKi [1] | pIC50 ([3]; read-out: IC50) | pKi ([3]; read-out: Ki) | pIC50 ([8]; read-out: IC50)
1 | CC1=C(CC(=O)O)c2cc(F)ccc2/C1=C\c1ccc([S+](C)[O-])cc1 (stereo not drawn) | Not Active | Not Active | Not Active | Not Active | Not Active | Not Active | Not Active | Not Active | Not Active | Not Active | Not Active | Not Active | Not Active |  |  |  |  | 
2 | N[C@H](CSC(=S)NCc1ccccc1)C(=O)O | Not Active | Not Active | Not Active | Not Active | Not Active | Not Active | Not Active | Not Active | Not Active | Not Active | Not Active | Not Active | Not Active |  |  |  |  | 
3 | CC(=O)N[C@@H]1[C@H](Oc2c3cc4cc2Oc2ccc(cc2Cl)[C@@H](O[C@@H]2O[C@@H](CO)[C@@H](O)[C@H](O)[C@@H]2NC(C)=O)[C@@H]2NC(=O)[C@H](NC(=O)[C@@H]4NC(=O)[C@H]4NC(=O)[C@@H](Cc5ccc(c(Cl)c5)O3)NC(=O)[C@H](N)c3ccc(O)c(c3)Oc3cc(O)cc4c3)c3ccc(O)c(c3)-c3c(O[C@H]4O[C@H](CO)[C@@H](O)[C@@H](O)[C@@H]4O)cc(O)cc3[C@@H](C(=O)O)NC2=O)O[C@@H](CO)[C@@H](O)[C@@H]1O | Not Active | Not Active | Not Active | Not Active | Not Active | Not Active | Not Active | Not Active | Not Active | Not Active | Not Active | Not Active | Not Active |  |  |  |  | 
4 | Clc1ccc2c(c1)C(N1CCNCC1)=Nc1ccccc1O2 [AMOXAPINE] |  |  |  | Not Active |  | Not Active | Not Active |  |  |  |  | Not Active | Not Active | 6.45 | 6.84 |  |  | 
5 | COc1cc2c(c(OC)c1OC)-c1ccc(OC)c(=O)cc1[C@@H](NC(C)=O)CC2 [COLCHICINE] | Not Active |  |  | Not Active | Not Active | Not Active | Not Active |  |  |  |  | Not Active | Not Active |  |  |  |  | 
6 | CN1CCC(=C2c3ccccc3C=Cc3ccccc32)CC1 [CYPROHEPTADINE] |  |  |  | Not Active |  | Not Active | Not Active |  |  |  |  | Not Active | Not Active | 6.62 | 7.01 | 8.61 | 8.89 | 
7 | CC/C(=C(/CC)c1ccc(O)cc1)c1ccc(O)cc1 [DIETHYLSTILBESTROL] |  |  |  | Not Active |  |  | Not Active |  |  |  |  | Not Active |  | 4.71 | 5.10 |  |  | 4.48
